{"source": "patent US9253983B2", "about": "“Triazole compound and use thereof” (KUREHA CORPORATION, priority 2011, dated 2016)", "key": {"Botrytis cinerea": {"test_system": "Botrytis cinerea", "assay": "Controlling effect on cucumber gray mold by foliage spray treatment (Tests 1 and 2)", "assay_type": "in vivo", "details": "four days after inoculation", "method": "The cucumber plants had been grown in square plastic pots (6 cm×6 cm). After the suspension was then left to dry, paper discs (8 mm in diameter) impregnated with a spore suspension of Botrytis cinerea w ere placed on the leaves, and the plants were kept at 20° C. in a high humidity environment. Four days after inoculation, the lesion degree of the cucumber gray mold was examined in accordance with the criteria shown in Table 1, and the protective values were calculated by the following equation: Protective value (%)=(1−Average lesion degree in sprayed plot/Average lesion degree in unsprayed plot)×100.\nThe cucumber plants had been grown in square plastic pots (6 cm×6 cm). After the leaves were air-dried, paper discs (8 mm in diameter) impregnated with a spore suspension of cucumber graymold-causing microorganisms were placed on the leaves, and the plants were kept at 20° C. in a high humidity environment. 4 days after the inoculation, the lesion degree of the cucumber gray mold was examined, and the protective values were calculated as were in Experiment Example 1."}, "Microdochium nivale": {"test_system": "Microdochium nivale", "assay": "Test 1 for antifungal effect, plate medium: M.n", "assay_type": "cell-based", "details": "PDA plate medium", "method": "(§1) Compound (1-1a) or Compound (1-2a) was dissolved in dimethyl sulfoxide, and the resulting solution was added to a PDA medium (potato dextrose-agar medium) at about 60° C. The medium and the solution were mixed thoroughly in a conical flask, poured into a petri dish, and allowed to solidify. In this way, a plate medium containing Compound (1-1a) or Compound (1-2a) at a certain concentration was prepared.\n(§2) Meanwhile, test microorganisms cultured on a plate medium in advance were cut out with the use of a cork borer 4 mm in diameter, and were inoculated onto the compound-containing plate medium. After the inoculation, the microorganisms were cultured at their optimum growth temperatures (for example, refer to LIST OF CULTURES 1996 microorganisms 10th edition, Institute for Fermentation (foundation)) for 1 day to 7 days, and their growth was determined by measuring the diameter of their flora. The extent of growth of the microorganisms on the compound-containing plate medium was compared with that of microorganisms on a plate medium where no compound was added, and mycelial growth inhibition rate was calculated by the following equation: R=100(dc−dt)/dc where R is mycelial growth inhibition rate (%), dc is the flora diameter in untreated plate, and dt is the flora diameter in plate treated with the compound.\n(§3) A larger antifungal index indicates a better antifungal effect."}, "Gibberella fujikuroi": {"test_system": "Gibberella fujikuroi", "assay": "Test 1 for antifungal effect, plate medium: G.f", "assay_type": "cell-based", "details": "PDA plate medium", "method": "as §1, §2, §3"}, "Rhizopus oryzae": {"test_system": "Rhizopus oryzae", "assay": "Test 1 for antifungal effect, plate medium: R.o", "assay_type": "cell-based", "details": "PDA plate medium", "method": "as §1, §2, §3"}, "Sclerotinia sclerotiorum": {"test_system": "Sclerotinia sclerotiorum", "assay": "Test 1 for antifungal effect, plate medium: S.s", "assay_type": "cell-based", "details": "PDA plate medium", "method": "as §1, §2, §3"}, "Pyrenophora graminea": {"test_system": "Pyrenophora graminea", "assay": "Test 2 for antifungal effect, plate medium: P.g", "assay_type": "cell-based", "details": "PDA plate medium", "method": "as §1, with “(1-1b)” for “(1-1a)”, “(1-2b)” for “(1-2a)”\n(§4) Meanwhile, test microorganisms cultured on a plate medium in advance were cut out with the use of a cork borer 4 mm in diameter, and were inoculated onto the compound-containing plate medium. After the inoculation, the pathogens were cultured at their optimum growth temperatures (for example, refer to LIST OF CULTURES 1996 microorganisms 10th edition, Institute for Fermentation (foundation)) for 1 day to 7 days, and their growth was determined by measuring the diameter of their flora. The extent of growth of the pathogens on the compound-containing plate medium was compared with that of pathogens on a plate medium where no compound was added, and mycelial growth inhibition rate was calculated as in Experiment Example 10. Note that, in Experiment Example 11, controls used in the antifungal effect tests are Compound (1-1a) and Compound (1-2a) instead of Compound (1-1b) and Compound (1-2b), respectively.\n(§5) The results were rated on a 1-to-5 scale as in Experiment Example 10."}, "Ustilago nuda": {"test_system": "Ustilago nuda", "assay": "Test 2 for antifungal effect, plate medium: U.n", "assay_type": "cell-based", "details": "PDA plate medium", "method": "as §1, with “(1-1b)” for “(1-1a)”, “(1-2b)” for “(1-2a)”\nas §4, §5"}, "Penicillium italicum": {"test_system": "Penicillium italicum", "assay": "Test 2 for antifungal effect, plate medium: P.i", "assay_type": "cell-based", "details": "PDA plate medium", "method": "as §1, with “(1-1b)” for “(1-1a)”, “(1-2b)” for “(1-2a)”\nas §4, §5"}, "Septoria tritici": {"test_system": "Septoria tritici", "assay": "Test 2 for antifungal effect, plate medium: S.t", "assay_type": "cell-based", "details": "PDA plate medium", "method": "as §1, with “(1-1b)” for “(1-1a)”, “(1-2b)” for “(1-2a)”\nas §4, §5"}}, "data": [{"smiles": "CC1(CCl)CCC(Cc2ccc(F)cc2)C1(O)Cn1cncn1", "note": "(single isomer, unassigned) [Compound (1-2b), (1,2-cis, 1,5-cis)-5-(4-fluorobenzyl)-2-chloromethyl-2-methyl-1-(1H-1,2,4-triazole-1-ylmethyl)cyclopentanol]", "values": [{"measurement": "Protective value (%)", "setting": "Botrytis cinerea; foliage spray 3.1 mg/L, 1,000 L/ha", "result": 15, "unit": "%"}, {"measurement": "Protective value (%)", "setting": "Botrytis cinerea; foliage spray 12.5 mg/L, 1,000 L/ha", "result": 98, "unit": "%"}, {"measurement": "Antifungal index (mycelial growth inhibition rate)", "setting": "Microdochium nivale; 0.16 mg/L", "result": "1 (Less than 60%)"}, {"measurement": "Antifungal index (mycelial growth inhibition rate)", "setting": "Microdochium nivale; 0.31 mg/L", "result": "1 (Less than 60%)"}, {"measurement": "Antifungal index (mycelial growth inhibition rate)", "setting": "Microdochium nivale; 0.63 mg/L", "result": "1 (Less than 60%)"}, {"measurement": "Antifungal index (mycelial growth inhibition rate)", "setting": "Microdochium nivale; 1.25 mg/L", "result": "1 (Less than 60%)"}, {"measurement": "Antifungal index (mycelial growth inhibition rate)", "setting": "Microdochium nivale; 2.50 mg/L", "result": "2 (Less than 70% but not less than 60%)"}, {"measurement": "Antifungal index (mycelial growth inhibition rate)", "setting": "Gibberella fujikuroi; 0.16 mg/L", "result": "3 (Less than 80% but not less than 70%)"}, {"measurement": "Antifungal index (mycelial growth inhibition rate)", "setting": "Gibberella fujikuroi; 0.31 mg/L", "result": "4 (Less than 90% but not less than 80%)"}, {"measurement": "Antifungal index (mycelial growth inhibition rate)", "setting": "Gibberella fujikuroi; 0.63 mg/L", "result": "5 (90% or greater)"}, {"measurement": "Antifungal index (mycelial growth inhibition rate)", "setting": "Gibberella fujikuroi; 1.25 mg/L", "result": "5 (90% or greater)"}, {"measurement": "Antifungal index (mycelial growth inhibition rate)", "setting": "Gibberella fujikuroi; 2.50 mg/L", "result": "5 (90% or greater)"}, {"measurement": "Antifungal index (mycelial growth inhibition rate)", "setting": "Rhizopus oryzae; 0.16 mg/L", "result": "1 (Less than 60%)"}, {"measurement": "Antifungal index (mycelial growth inhibition rate)", "setting": "Rhizopus oryzae; 0.31 mg/L", "result": "1 (Less than 60%)"}, {"measurement": "Antifungal index (mycelial growth inhibition rate)", "setting": "Rhizopus oryzae; 0.63 mg/L", "result": "1 (Less than 60%)"}, {"measurement": "Antifungal index (mycelial growth inhibition rate)", "setting": "Rhizopus oryzae; 1.25 mg/L", "result": "1 (Less than 60%)"}, {"measurement": "Antifungal index (mycelial growth inhibition rate)", "setting": "Rhizopus oryzae; 2.50 mg/L", "result": "2 (Less than 70% but not less than 60%)"}, {"measurement": "Antifungal index (mycelial growth inhibition rate)", "setting": "Sclerotinia sclerotiorum; 0.16 mg/L", "result": "3 (Less than 80% but not less than 70%)"}, {"measurement": "Antifungal index (mycelial growth inhibition rate)", "setting": "Sclerotinia sclerotiorum; 0.31 mg/L", "result": "5 (90% or greater)"}, {"measurement": "Antifungal index (mycelial growth inhibition rate)", "setting": "Sclerotinia sclerotiorum; 0.63 mg/L", "result": "5 (90% or greater)"}, {"measurement": "Antifungal index (mycelial growth inhibition rate)", "setting": "Sclerotinia sclerotiorum; 1.25 mg/L", "result": "5 (90% or greater)"}, {"measurement": "Antifungal index (mycelial growth inhibition rate)", "setting": "Sclerotinia sclerotiorum; 2.50 mg/L", "result": "5 (90% or greater)"}, {"measurement": "Antifungal index (mycelial growth inhibition rate)", "setting": "Pyrenophora graminea; 0.04 mg/L", "result": "4 (Less than 90% but not less than 80%)"}, {"measurement": "Antifungal index (mycelial growth inhibition rate)", "setting": "Pyrenophora graminea; 0.08 mg/L", "result": "5 (90% or greater)"}, {"measurement": "Antifungal index (mycelial growth inhibition rate)", "setting": "Pyrenophora graminea; 0.16 mg/L", "result": "5 (90% or greater)"}, {"measurement": "Antifungal index (mycelial growth inhibition rate)", "setting": "Pyrenophora graminea; 0.31 mg/L", "result": "5 (90% or greater)"}, {"measurement": "Antifungal index (mycelial growth inhibition rate)", "setting": "Pyrenophora graminea; 0.63 mg/L", "result": "5 (90% or greater)"}, {"measurement": "Antifungal index (mycelial growth inhibition rate)", "setting": "Pyrenophora graminea; 1.25 mg/L", "result": "5 (90% or greater)"}, {"measurement": "Antifungal index (mycelial growth inhibition rate)", "setting": "Ustilago nuda; 0.04 mg/L", "result": "1 (Less than 60%)"}, {"measurement": "Antifungal index (mycelial growth inhibition rate)", "setting": "Ustilago nuda; 0.08 mg/L", "result": "1 (Less than 60%)"}, {"measurement": "Antifungal index (mycelial growth inhibition rate)", "setting": "Ustilago nuda; 0.16 mg/L", "result": "2 (Less than 70% but not less than 60%)"}, {"measurement": "Antifungal index (mycelial growth inhibition rate)", "setting": "Ustilago nuda; 0.31 mg/L", "result": "4 (Less than 90% but not less than 80%)"}, {"measurement": "Antifungal index (mycelial growth inhibition rate)", "setting": "Ustilago nuda; 0.63 mg/L", "result": "4 (Less than 90% but not less than 80%)"}, {"measurement": "Antifungal index (mycelial growth inhibition rate)", "setting": "Ustilago nuda; 1.25 mg/L", "result": "5 (90% or greater)"}, {"measurement": "Antifungal index (mycelial growth inhibition rate)", "setting": "Penicillium italicum; 0.04 mg/L", "result": "1 (Less than 60%)"}, {"measurement": "Antifungal index (mycelial growth inhibition rate)", "setting": "Penicillium italicum; 0.08 mg/L", "result": "4 (Less than 90% but not less than 80%)"}, {"measurement": "Antifungal index (mycelial growth inhibition rate)", "setting": "Penicillium italicum; 0.16 mg/L", "result": "5 (90% or greater)"}, {"measurement": "Antifungal index (mycelial growth inhibition rate)", "setting": "Penicillium italicum; 0.31 mg/L", "result": "5 (90% or greater)"}, {"measurement": "Antifungal index (mycelial growth inhibition rate)", "setting": "Penicillium italicum; 0.63 mg/L", "result": "5 (90% or greater)"}, {"measurement": "Antifungal index (mycelial growth inhibition rate)", "setting": "Penicillium italicum; 1.25 mg/L", "result": "5 (90% or greater)"}, {"measurement": "Antifungal index (mycelial growth inhibition rate)", "setting": "Septoria tritici; 0.04 mg/L", "result": "2 (Less than 70% but not less than 60%)"}, {"measurement": "Antifungal index (mycelial growth inhibition rate)", "setting": "Septoria tritici; 0.08 mg/L", "result": "5 (90% or greater)"}, {"measurement": "Antifungal index (mycelial growth inhibition rate)", "setting": "Septoria tritici; 0.16 mg/L", "result": "5 (90% or greater)"}, {"measurement": "Antifungal index (mycelial growth inhibition rate)", "setting": "Septoria tritici; 0.31 mg/L", "result": "5 (90% or greater)"}, {"measurement": "Antifungal index (mycelial growth inhibition rate)", "setting": "Septoria tritici; 0.63 mg/L", "result": "5 (90% or greater)"}, {"measurement": "Antifungal index (mycelial growth inhibition rate)", "setting": "Septoria tritici; 1.25 mg/L", "result": "5 (90% or greater)"}]}]}
